Experimental data reported in article PMC7069976, “Improved secretion of glycoproteins using an N-glycan-restricted passport sequence tag recognized by cargo receptor” (Nature Communications, 2020).

Assays:
HCT116 cells [1] = test: RUSH imaging of ER-to-Golgi transport; format: cell-based; settings: for colocalized fraction with GM130 (Manders' M1), average: mScarlet-I fusion
Description: For live-cell imaging using RUSH system, li-Str_ST-SBP-mCherry (Plasmid #65269) was purchased from Addgene. We replaced mCherry with mScarlet-I-EPO or mScarlet-I-EPO-motif (SbfI/XbaI). HCT116 cells were plated on 35-mm glass-based dishes, which were coated with poly-L-lysine, and grown overnight. RUSH plasmids to express mScarlet-I-EPO and mScarlet-I-EPO-motif were individually transfected into the cells using Expifectamine^TM 293 reagent. After 24 h, the medium was changed into DMEM including 40 μM (+)-biotin for starting the translocation form ER. […] After blocking with Blocking One solution (Nacalai Tesque), the cells were incubated with polyclonal rabbit anti-GM130 (Proteintech, 11308-1-AP, dilution 1 :1000) and then with Alexa Fluor 488-conjugated anti-rabbit IgG antibody [Jackson ImmunoResearch (West Grove, PA), 711-545-152, dilution 1:1000] in 20 mM Tris-HCl (pH 7.6) containing 150 mM NaCl and 0.05% Tween-20. Cell images were recorded using a fluorescence microscope BZ-X700 and BZ-H3XF/Sectioning Module (Keyence Co., Osaka, Japan) and analyzed by Fiji[31]. For quantification of co-localization of EPO proteins and GM130, the images were thresholded by the Otsu method and analyzed by calculating Manders’ coefficient (M1) with Coloc2 plugin[32]. Because of abnormal distribution of the imaging data based on Shapiro–Wilk normality test, nonparametric statistics were used for the analysis. All statistical analysis was performed in the R statistical environment version 3.5.3[33].

HCT116 cells [2] = test: Intracellular accumulation, western blotting of cell lysates; format: cell-based; settings: anti-flag western blot, vs EPO-motif
Description: Western blots were performed according to methods in previous studies[29],[30]. At 72 h post transfection, the EPO and sFγRIII recombinant proteins were purified with anti-Flag M2 Affinity Gel (Sigma-Aldrich). The gel was washed twice with phosphate-buffered saline, and proteins were eluted with the 3× FLAG tag peptide (Sigma-Aldrich). The purified proteins were subjected to 3–10% gradient sodium dodecyl sulfate-polyacrylamide gel electrophoresis and subsequently transferred to a polyvinylidene difluoride membrane (Millipore, Billerica, MA). After blocking with Blocking One solution (Nacalai Tesque, Kyoto, Japan), the membranes were incubated with monoclonal mouse anti-Flag M2 (Sigma-Aldrich, F1804), anti-human LMAN1 (ERGIC-53) (Proteintech, Tokyo, Japan, 13364), anti-human SDNSF/MCFD2 (R&D System, Minneapolis, MN, MAB2357), and anti-β-actin (Sigma-Aldrich, A2228) antibodies, and then with horseradish peroxidase (HRP)-conjugated secondary antibody [anti-mouse IgG antibody-HRP, GE Healthcare (Piscataway, NJ) and anti-rabbit Ig antibody-HRP, Cell Signaling Technology (Danvers, MA)] in 20 mM Tris-HCl (pH 7.6) containing 150 mM NaCl and 0.05% Tween-20. The protein bands were visualized with Immobilon Western Chemiluminescent HRP substrate solution (Millipore).

EPO: recombinant Flag-tagged erythropoietin without motif (Fig. 5 prints EPO for mScarlet-I-EPO)
colocalized fraction with GM130 (Manders' M1) (HCT116 cells [1]; 0 min, Figure No. 1): 0.028 | colocalized fraction with GM130 (Manders' M1) (HCT116 cells [1]; 0 min, Figure No. 2): 0.024 | colocalized fraction with GM130 (Manders' M1) (HCT116 cells [1]; 0 min, Figure No. 3): 0.051 | colocalized fraction with GM130 (Manders' M1) (HCT116 cells [1]; 0 min, Figure No. 4): 0.098 | colocalized fraction with GM130 (Manders' M1) (HCT116 cells [1]; 0 min, Figure No. 5): 0.14 | colocalized fraction with GM130 (Manders' M1) (HCT116 cells [1]; 0 min, Figure No. 6): 0.098 | colocalized fraction with GM130 (Manders' M1) (HCT116 cells [1]; 0 min, Figure No. 7): 0.128 | colocalized fraction with GM130 (Manders' M1) (HCT116 cells [1]; 0 min, Figure No. 8): 0.018 | colocalized fraction with GM130 (Manders' M1) (HCT116 cells [1]; 0 min, Figure No. 9): 0.026 | colocalized fraction with GM130 (Manders' M1), average (HCT116 cells [1]; 0 min after biotin (40 μM), n = 9 cells): 0.06789 | colocalized fraction with GM130 (Manders' M1) (HCT116 cells [1]; 30 min, Figure No. 1): 0.115 | colocalized fraction with GM130 (Manders' M1) (HCT116 cells [1]; 30 min, Figure No. 2): 0.302 | colocalized fraction with GM130 (Manders' M1) (HCT116 cells [1]; 30 min, Figure No. 3): 0.628 | colocalized fraction with GM130 (Manders' M1) (HCT116 cells [1]; 30 min, Figure No. 4): 0.57 | colocalized fraction with GM130 (Manders' M1) (HCT116 cells [1]; 30 min, Figure No. 5): 0.472 | colocalized fraction with GM130 (Manders' M1) (HCT116 cells [1]; 30 min, Figure No. 6): 0.508 | colocalized fraction with GM130 (Manders' M1) (HCT116 cells [1]; 30 min, Figure No. 7): 0.39 | colocalized fraction with GM130 (Manders' M1) (HCT116 cells [1]; 30 min, Figure No. 8): 0.267 | colocalized fraction with GM130 (Manders' M1) (HCT116 cells [1]; 30 min, Figure No. 9): 0.53 | colocalized fraction with GM130 (Manders' M1) (HCT116 cells [1]; 30 min, Figure No. 10): 0.285 | colocalized fraction with GM130 (Manders' M1), average (HCT116 cells [1]; 30 min after biotin (40 μM), n = 10 (EPO) or 13 (EPO-motif) cells): 0.4067 | ER-to-Golgi trafficking (HCT116 cells [1]; 30 min after biotin addition): localized in the Golgi to varying extents depending on the C-terminal motif | localization in RUSH imaging (HCT116 cells [1]; before addition of biotin (time 0)): typical ER localization | intracellular accumulation (HCT116 cells [2]): a higher level of accumulation in the cells
